This is an account of results in US8383642B2, “Spiropiperidine compounds” (Eli Lilly and Company, priority 2009, dated 2013).

One assay relates to Min6 cells. The experiment in a line: Glucose Dependent Insulin Secretion (GDIS) assay, insulinoma cell line Min6. Format: cell-based, mouse. The note with it: 1 μM plus 25 mM glucose compared to 25 mM glucose alone; 2 h. As for the experimental part:
(§1) Because activation of GPR40 is known to result in insulin secretion which is dependent on high glucose concentrations, two separate assay systems (insulinoma cell line and primary rodent islets) are developed to further characterize compounds that are known to increase intracellular calcium in the GPR40 primary assay discussed above.
GDIS assays are performed using the mouse insulinoma cell line Min6. Min6 cells are maintained in Dulbecco's Modified Eagle's Medium (DMEM) containing non-essential amino acids, 10% FBS, […] 2-mercaptoethanol and 1% penicillin and streptomycin at 37° C. plus 5% CO2. On the day of the experiment, the cells are washed twice with 200 μl of pre-warmed Krebs-ringer buffer without glucose. Addition of 200 μL of pre-warmed Krebs-ringer buffer containing 2.5 mM glucose is used to starve the cells followed by the addition of compounds in the presence of a high concentration of glucose (25 mM). The plate is incubated at 37° C. for 2 hours. At the end of the 2 h incubation, the supernatant is gently transferred into a Millipore filter plate and spun at 200 g (gravitational force) for 3 minutes. Insulin is assayed using a Mercodia Insulin estimation kit.

In another assay the test system is pancreatic islets. The experiment in a line: GDIS assay, primary rodent pancreatic islets of Langerhans. The format is cell-based. The settings on record: different concentrations; compared to 11.2 mM glucose alone; 90 minutes; SD rat islets.
From the text: as §1
GDIS assays using primary rodent pancreatic islets of Langerhans are also used to characterize exemplified compounds. Pancreatic islets are isolated from male SD (Sprague Dawley) rats by collagenase digestion and Histopaque density gradient separation. The islets are cultured overnight in RPMI-1640 medium with GlutaMAXn (stabilized, dipeptide form of L-glutamine (Invitrogen catalog #61870-010)) to facilitate recovery from the isolation process. Insulin secretion is determined by a 90 minute incubation in EBSS (Earle's Balances Salt Solution) buffer in a 48-well plate. Briefly, islets are first preincubated in EBSS with 2.8 mM glucose for 30 min and are then transferred to a 48-well plate (four islets/well) containing 150 μl 2.8 mM glucose and incubated with 150 μl of EBSS with 2.8 or 11.2 mM glucose in the presence or absence of test compounds for 90 minutes. The buffer is removed from the wells at the end of the incubation and assayed for insulin levels using the Rat Insulin ELISA kit (Mercodia). […]

A further assay deals with T1, PPARγ (Homo sapiens, UniProt P37231).
T1 sequence (P37231 1-505): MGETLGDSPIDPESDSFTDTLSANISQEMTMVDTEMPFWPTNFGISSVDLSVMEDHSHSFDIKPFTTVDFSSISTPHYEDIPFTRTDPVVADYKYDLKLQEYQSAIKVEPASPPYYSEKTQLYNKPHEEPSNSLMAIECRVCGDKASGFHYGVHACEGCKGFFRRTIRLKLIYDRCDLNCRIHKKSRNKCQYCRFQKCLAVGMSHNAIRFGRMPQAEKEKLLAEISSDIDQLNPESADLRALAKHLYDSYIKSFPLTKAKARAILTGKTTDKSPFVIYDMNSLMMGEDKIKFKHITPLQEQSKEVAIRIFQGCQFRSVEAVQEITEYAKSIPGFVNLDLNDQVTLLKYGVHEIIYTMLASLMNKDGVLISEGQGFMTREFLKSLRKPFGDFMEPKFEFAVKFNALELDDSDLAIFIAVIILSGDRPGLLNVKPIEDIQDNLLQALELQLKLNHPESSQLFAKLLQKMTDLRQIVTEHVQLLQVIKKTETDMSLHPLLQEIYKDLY
T1 sequence (P19793 1-462 partner): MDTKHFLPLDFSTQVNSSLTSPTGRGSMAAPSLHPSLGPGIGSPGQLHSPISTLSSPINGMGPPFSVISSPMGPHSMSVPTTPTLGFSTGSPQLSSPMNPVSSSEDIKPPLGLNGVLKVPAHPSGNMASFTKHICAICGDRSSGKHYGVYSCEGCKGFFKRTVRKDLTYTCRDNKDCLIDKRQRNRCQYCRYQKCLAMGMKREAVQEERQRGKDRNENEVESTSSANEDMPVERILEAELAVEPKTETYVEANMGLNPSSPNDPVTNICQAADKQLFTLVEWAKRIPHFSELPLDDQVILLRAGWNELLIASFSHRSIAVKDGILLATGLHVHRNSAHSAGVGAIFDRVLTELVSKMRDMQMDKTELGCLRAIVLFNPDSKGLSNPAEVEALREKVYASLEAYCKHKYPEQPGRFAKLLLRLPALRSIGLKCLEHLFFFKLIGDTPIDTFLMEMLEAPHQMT
The experiment in a line: PPARγ reporter functional assay (CTF). The settings on record: examined up to 10 μM; CV1 cells; luciferase. Format: cell-based. From the text:
Gal4 PPARα, Gal4 PPARδ, and PPARγ reporter functional assays are also used to monitor the selectivity of exemplified compounds. CV1 cells, which are derived from the renal tissue of an African green monkey, are transfected with various receptor and reporter plasmids using Fugene. For the Gal4 PPARα and PPARδ assays, a reporter plasmid containing five tandem copies of the yeast transcription protein Gal4 response element, cloned upstream of a firefly luciferase gene driven by the major late promoter of adenovirus, is transfected together with a Simian Virus 40 (SV40) driven plasmid constitutively expressing a hybrid protein containing the Gal4 DNA binding domain (DBD), and either the PPARα or PPARδ ligand binding. For the PPARγ assay, plasmids encoding PPARγ and RXRα, both driven by a cytomegalovirus (CMV) promoter are transfected together with a plasmid containing luciferase reporter cDNA driven by the TK promoter and a receptor response element (2×PPRE). Cells are transfected in T225 cm^2 cell culture flasks in DMEM media with 5% charcoal-stripped FBS. […] After 24 hours incubation with compounds, cells are lysed and luciferase activity is determined as a measure of receptor activation by luminescence. […] The maximum percent stimulation is determined versus maximum stimulation obtained with 10 μM of an appropriate PPAR agonist reference compound. […]

With `CC#C[C@@H](CC(=O)O)c1ccc(OCc2ccc(CN3CCC4(C=Cc5ccccc54)CC3)cc2)cc1` [Example 1, (3S)-3-(4-{[4-(1′H-Spiro[indene-1,4′-piperidin]-1′-ylmethyl)benzyl]oxy}phenyl)hex-4-ynoic acid], the “increase in insulin secretion” value in the assay on Min6 cells is “two-fold increase”. The increase in insulin with pancreatic islets was 2- to 4 fold. Also, the functional activation entry on PPARγ is listed as “No functional activation”.
